Values quoted from earlier work, collected in patent publication US20090317451A1, “PRESSURE-SENSITIVE ADHESIVE FOR SKIN SURFACE AND/OR TRANSDERMAL SUBSTANCE DELIVERY” (priority 2008, published 2009).
Structures can show the parent of a compound that is named as a salt.

settings: in glycerol; Merck 12th edition #886

| decomposition by moisture | Structure (SMILES) |
| --- | --- |
| glycerol hinders the decomposition | CC(=O)Oc1ccccc1C(=O)O [Aspirin, acetylsalicylic acid] |

settings: solvent(s) in which soluble; Merck 12th edition or other reference

| Reported Solubility | Structure (SMILES) |
| --- | --- |
| Alcohol | O=C(CCCN1CCC(O)(c2ccc(Cl)cc2)CC1)c1ccc(F)cc1 [Haloperidol] |
| Alcohol | CC(C)Cc1ccc(C(C)C(=O)O)cc1 (centres unmarked) [Ibuprofen] |
| Glycerol + | CC(C)Cn1cnc2c(N)nc3ccccc3c21 [Imiquimod] |
| Alcohol | CC(=O)N1CCN(c2ccc(OCC3COC(Cn4ccnc4)(c4ccc(Cl)cc4Cl)O3)cc2)CC1 (centres unmarked) [Ketoconazole] |
| Alcohol | CS(C)(=O)=O [MSM, dimethyl sulfone, dimethyl sulfone] |
| Water, alcohol | Cc1ncc([N+](=O)[O-])n1CCO [Netronidazole] |
| Alcohol | C#C[C@]1(OC(C)=O)CC[C@H]2[C@@H]3CCC4=CC(=O)CC[C@@H]4[C@H]3CC[C@@]21C [Norethindrone acetate] |
| Alcohol | CC(=O)O[C@H]1C(=O)[C@@]2(C)[C@H]([C@H](OC(=O)c3ccccc3)[C@]3(O)C[C@H](OC(=O)[C@H](O)[C@@H](NC(=O)c4ccccc4)c4ccccc4)C(C)=C1C3(C)C)[C@]1(OC(C)=O)CO[C@@H]1C[C@@H]2O [Paclitaxel] |
| Water | Nc1nc2c(ncn2CCC(CO)CO)c(=O)[nH]1 [Penciclovir] |
| Alcohol | CC[C@@H]1C(=O)OC[C@@H]1Cc1cncn1C [Pilocarpine] |
| Alcohol | CC(CN1c2ccccc2Sc2ccccc21)N(C)C (centres unmarked) [Promethazine] |
| Alcohol | CN(C/C=C/C#CC(C)(C)C)Cc1cccc2ccccc12 [Terbinafinehydrochloride] |

The remaining lines, values behind:

| Structure (SMILES) | Reported Solubility |
| --- | --- |
| CC(=O)Nc1ccc(O)cc1 [Acetaminophen] | Alcohol |
| Nc1nc2c(ncn2COCCO)c(=O)[nH]1 [Acyclovir] | Alcohol |
| CC(C)(C)NCC(O)c1ccc(O)c(CO)c1 (centres unmarked) [Albuterol] | Alcohol |
| CC(=O)Oc1ccccc1C(=O)O [Aspirin, acetylsalicylic acid] | Alcohol |
| CCOC(=O)c1ccc(N)cc1 [Benzocaine] | Alcohol |
| CC12CCC(CC1=O)C2(C)C (centres unmarked) [Camphor] | Alcohol |
| Cc1cc(C2CCCCC2)n(O)c(=O)c1 [Ciclopirox] | Alcohol |
| COc1cc(/C=C/C(=O)CC(=O)/C=C/c2ccc(O)c(OC)c2)ccc1O [Curcumin] | Alcohol |
| COc1cccc2c1C(=O)c1c(O)c3c(c(O)c1C2=O)C[C@@](O)(C(=O)CO)C[C@@H]3O[C@H]1C[C@H](N)[C@H](O)[C@H](C)O1 [Doxorubicin] | Alcohol |
| CC[C@H]1OC(=O)[C@H](C)[C@@H](O[C@H]2C[C@@](C)(OC)[C@@H](O)[C@H](C)O2)[C@H](C)[C@@H](O[C@@H]2O[C@H](C)C[C@H](N(C)C)[C@H]2O)[C@](C)(O)C[C@@H](C)C(=O)[C@H](C)[C@@H](O)[C@]1(C)O [Erythromycin hydrate] | Alcohol |
| CC(=O)OCC(CCn1cnc2cnc(N)nc21)COC(C)=O [Famciclovir] | Alcohol |
| Oc1ccc(C2CNCCc3c2cc(O)c(O)c3Cl)cc1 (centres unmarked) [Fenoldopam] | Alcohol |

same assay, conditions: solvent(s) in which soluble; Merck 12th edition or other reference; listed as Liquimod

| Reported Solubility | Structure (SMILES) |
| --- | --- |
| Alcohol | CC(C)Cn1cnc2c(N)nc3ccccc3c21 [Imiquimod] |
